Data reported in paper PMC9298260, “An Immunomodulatory Peptide Dendrimer Inspired from Glatiramer Acetate” (Angewandte Chemie (International Ed. in English), 2021).

What was measured:
[1] = test system: IL-1Ra release from human primary monocytes; experiment: IL-1Ra release from human primary monocytes, immunoassay (ELISA) of supernatants; type: cell-based; conditions: primary human monocytes of healthy donors, 25 and 50 μg mL^−1, 48 h
Procedure: (§1) As an activity screen we focused on interleukin‐1 receptor antagonist (IL‐1Ra), a cytokine released by circulating antigen presenting cells (APC) in response to GA.[15, 35] […] To test our dendrimers, we quantified by immunoassay the release of IL‐1Ra from human primary monocytes of healthy donors, an easily accessible type of APC, stimulated or not by addition of lipopolysaccharide (LPS), which in our hands provided a reliable read‐out.[15] We tested at defined weight/volume (25 and 50 μg mL^−1 compound as typically reported for GA)[15, 35] to account for a possible activity increase with MW as often observed with dendrimers when using molarity. In the initial screen the levels of secreted IL‐1Ra remained below 1 ng mL^−1 for all the smaller test compounds as well as with the linear peptide analogs of GA.
(§2) Figure 2 Cytokine level of IL‐1Ra in supernatants of primary human monocytes of healthy donors treated with peptide dendrimers, evaluated by ELISA (bars, left vertical axis) and mRNA levels (▴, right vertical axis). […] For mRNA levels evaluation, 2×10^6 cells 3 mL^−1 in 6 well plates were incubated with 50 μg mL^−1 dendrimer or GA for 18 h. […]
(§3) Enzyme-linked immunosorbent assay (ELISA)
(§4) Monocytes (5×10^4 cells/200 μL well; 96-well plates) were preincubated for 1 h with or without compounds in RPMI-1640 medium supplemented with 10% heat-inactivated FBS, 50 μg/mL streptomycin, 50 U/mL penicillin, 2 mM L-glutamine, and 5 μg/mL polymyxin B sulfate and then cultured for 48 h in the presence or absence of LPS (100 ng/mL) (2). The production of IL-1Ra was measured in culture supernatants by commercially available enzyme immunoassay according to manufacture protocol.
(§5) Figure S2. Cytokine level of IL-1Ra in supernatants of monocytes for active dendrimers and analogues evaluated by ELISA assay on primary human monocytes of healthy donors. 5×10^4 cells/200 µL in 96 well plates, were incubated with dendrimers or GA as a control for 48 h in presence or absence of LPS (100 ng/mL), in a range of concentrations (50-25 µg/mL) (mean ± SD, n = 2 different experiments). The results are present as the difference between each sample and the non-treated sample to take into account the difference between base line for each donor.
(§6) Figure S3. Cytokine level of IL-1Ra in supernatants of monocytes for active dendrimers and […]
(§7) presence or absence of LPS (100 ng/mL), in a range of concentrations (100-12.5 µg/mL) (mean ± SD, n = 3 different experiments). […]

IL-1β = IL-1β time profile in monocytes, RT-qPCR; type: cell-based, human; conditions: 50 µg/mL, inactivated and LPS (100 ng/mL) activated
Procedure: (§8) For closer characterization, we selected dendrimer 1 due to its smaller size and the presence of a cysteine residue that could be used for labelling. […] Furthermore, dendrimer 1 induced the release of IL‐1Ra both with and without LPS activation, but in the latter case the effect was detected only after 18 h incubation (Figure S5e/f).
(§9) Enriched monocytes after Percoll centrifugation (4×10^6 cells/3 mL well; 6-well plates) were preincubated for 1 h with or without compounds in RPMI-1640 medium supplemented with 10% heat-inactivated FBS, 50 μg/mL streptomycin, 50 U/mL penicillin, 2 mM L-glutamine, and then incubated for the indicated duration. After the incubation cells were collected, total RNA was extracted, reverse transcribed and analyzed by SYBR Green Master Mix. As a housekeeping gene was used Actin 5'-CAC TGG GGG CTA CTG GAC-3', 3'-AACATGGTGTTGGCAGAAACT-5', IL-1Ra 5'-TTCCTGTTCCATTCAGAGACG -3', 3'-CTTCTGGTTAACATCCCAGATTC -5'.
(§10) Figure S5. Dendrimer 1 affected mRNA levels in both LPS -activated and resting monocytes.
(§11) Monocytes 4 ×10^6 cells/3 mL in 6 well plates were incubated for indicated time with 50 µg/mL of 1 or without any treatment (NT) (a, c, e); or preincubated for 1 h with 100 ng/mL of LPS, and then with 50 µg/mL of 1 (b, d, f) or without any treatment (NT). […]

TNF-α = TNF-α time profile in monocytes, RT-qPCR; type: cell-based, human; conditions: 50 µg/mL, LPS (100 ng/mL) activated
Procedure: as §8, §9, §10, §11

IL-1Ra = IL-1Ra time profile / mRNA level in monocytes, RT-qPCR; type: cell-based, human; conditions: 50 µg/mL, with and without LPS, without LPS detected only after 18 h
Procedure: Figure 2 Cytokine level of IL‐1Ra in supernatants of primary human monocytes of healthy donors treated with peptide dendrimers, evaluated by ELISA (bars, left vertical axis) and mRNA levels (▴, right vertical axis). […] For mRNA levels evaluation, 2×10^6 cells 3 mL^−1 in 6 well plates were incubated with 50 μg mL^−1 dendrimer or GA for 18 h.
To assess the activity requirements for 1 and 4, we performed a structure–activity relationship (SAR) study on the level of induced IL‐1Ra release measured by immunoassay, which we verified in selected cases at the mRNA level by RT‐qPCR (Figure 2).
as §8
as §9, with “As a housekeeping gene was used Actin 5'-CAC TGG GGG CTA CTG GAC-3', 3'-AACATGGTGTTGGCAGAAACT-5', IL-1Ra 5'-TTCCTGTTCCATTCAGAGACG -3', 3'-CTTCTGGTTAACATCCCAGATTC -5'.” left out

[2] = test system: IL-1Ra release from human primary monocytes; experiment: IL-1Ra release from human primary monocytes, immunoassay (ELISA) of supernatants; type: cell-based; design: key: +: Ability to induce IL-1Ra on primary monocytes after 48 h of incubation; Ability to induce IL-1Ra on primary monocytes after 48 h of incubation; conditions: Table S1 initial library; primary monocytes, 48 h
Procedure: as §1, §2, §3, §4, §5, §6, §7

(KA)8(KAK)4(KEKA)2KAKEAYCA-NH2 [compound 1, G3 peptide dendrimer]
IL-1Ra release activity (in words) [1]: comparable or higher than GA
production of IL-1β (IL-1β): significantly inhibited
release of TNF-α (TNF-α): inhibited
release of IL-1Ra, time profile (IL-1Ra): induced
Act. (ability to induce IL-1Ra) [2]: +
